Measurements reported in the NIST ThermoML archive (doi:10.1016/j.jct.2010.12.021).
± gives the expanded uncertainty stated by the source.

Legend:
[1] = Molar enthalpy of transition or fusion; conditions: Crystal; DSC
[2] = for viscosity / mass density: 101.33 kPa, Liquid; for viscosity: Falling or rolling sphere viscometry; for mass density: Vibrating tube method

CCCCCC[n+]1cccc2ccccc21.O=S(=O)([N-]S(=O)(=O)C(F)(F)F)C(F)(F)F [1-hexylquinolinium bis(trifluoromethylsulfonyl)amide]
Conditions	Molar enthalpy of transition or fusion [kcal/mol]
[1]	15.2 ± 0.669

[2]
Conditions	mass density [kg/m3]	viscosity [mPa·s]
323.15 K	1365.94 ± 1.7	100.1 ± 2.5
328.15 K	1361.65 ± 1.7	77.97 ± 1.4
333.15 K	1357.35 ± 1.7	61.78 ± 0.76
338.15 K	1353.06 ± 1.6	50.09 ± 0.51
343.15 K	1348.77 ± 1.6	41.08 ± 0.52
348.15 K	1344.52 ± 1.6	34.22 ± 0.43

Conditions	Normal melting temperature [°C]
[2], Crystal, DTA	44.1 ± 0.39
